# Data published in patent publication US12325710B2, “Substituted 1,2,3,4,5,6-hexahydroazepino[4,5-b]indoles for treating brain disorders” (priority 2019, dated 2025).
# Entries after “also recorded” stand apart in the source; their conditions may differ.
# Columns and labels:
# mouse 5-HT2A receptors = mouse 5-HT2A receptors (Mus musculus, UniProt P35363); test: 5-HT2A Gq-mediated calcium flux functional assay (mouse); type: cell-based
# Procedure: (§1) Serotonin and Opioid Receptor Functional Assays. Functional assay screens at 5-HT and opioid receptors were performed in parallel using the same compound dilutions and 384-well format high-throughput assay platforms. Assays assessed activity at all human isoforms of the receptors, except where noted for the mouse 5-HT2A receptor. Receptor constructs in pcDNA vectors were generated from the Presto-Tango GPCR library with minor modifications. All compounds were serially diluted in drug buffer (HBSS, 20 mM HEPES, pH 7.4 supplemented with 0.1% bovine serum albumin and 0.01% ascorbic acid) and dispensed into 384-well assay plates using a FLIPR^TETRA (Molecular Devices). Every plate included a positive control such as 5-HT (for all 5-HT receptors), DADLE (DOR), salvinorin A (KOR), and DAMGO (MOR). For measurements of 5-HT2A, 5-HT2B, and 5-HT2C Gq-mediated calcium flux function, HEK Flp-In 293 T-Rex stable cell lines (Invitrogen) were loaded with Fluo-4 dye for one hour, stimulated with compounds and read for baseline (0-10 seconds) and peak fold-over-basal fluorescence (5 minutes) at 25° C. on the FLIPR^TETRA. For measurement of 5-HT6 and 5-HT7a functional assays, Gs-mediated cAMP accumulation was detected using the split-luciferase GloSensor assay in HEKT cells measuring luminescence on a Microbeta Trilux (Perkin Elmer) with a 15 min drug incubation at 25° C. […]
# [1] = tested on: rat embryonic cortical neurons; test: Dendritogenesis (Sholl analysis) in cultured cortical neurons; type: cell-based
# Procedure: Embryonic rat cortical neurons were treated for a short period of time (1 h) followed by a suitable growth period (71 h) to measure the psychoplastogenic effects of the compounds described herein. […] Therefore, the effects of ibogalogs 8-17 on dendritic growth was assessed.
# Dendritogenesis Experiments. For the dendritogenesis experiments conducted using cultured cortical neurons, timed pregnant Sprague Dawley rats were obtained from Charles River Laboratories (Wilmington, MA). Full culturing, staining, and analysis details were performed as previously described. (Dunlap, L. et al., 2019)
# 5-HT2C = molecular target: T1, 5-HT2C (Homo sapiens, UniProt P28335); test: 5-HT2C Gq-mediated calcium flux functional assay; type: cell-based
# T1 sequence (P28335 33-458): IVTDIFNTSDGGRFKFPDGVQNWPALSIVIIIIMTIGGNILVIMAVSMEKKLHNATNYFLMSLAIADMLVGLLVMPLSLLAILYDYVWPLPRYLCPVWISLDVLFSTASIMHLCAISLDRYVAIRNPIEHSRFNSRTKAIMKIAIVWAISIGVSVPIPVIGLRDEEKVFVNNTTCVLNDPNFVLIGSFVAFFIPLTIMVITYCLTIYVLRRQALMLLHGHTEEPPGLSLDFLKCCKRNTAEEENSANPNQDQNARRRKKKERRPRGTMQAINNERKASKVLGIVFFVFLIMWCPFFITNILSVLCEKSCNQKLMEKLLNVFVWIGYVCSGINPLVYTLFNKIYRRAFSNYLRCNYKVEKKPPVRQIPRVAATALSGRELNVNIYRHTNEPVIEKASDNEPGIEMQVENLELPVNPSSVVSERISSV
# Procedure: as §1
# [2] = tested on: larval zebrafish expressing GCaMP5; test: Seizurogenic potential in larval zebrafish expressing GCaMP5; type: in vivo; settings: 200 μM; PTZ positive control
# Procedure: Transgenic larval zebrafish expressing GCaMP5G were immobilized in agarose, treated with compounds, and imaged over time. The known seizure-inducing compound PTZ was used as a positive control. All compounds were treated at 200 μM (n=2 per condition).
# zebrafish = test: Zebrafish developmental toxicity assay; type: in vivo
# [3] = tested on: mouse primary sensory cortex; test: In vivo spine dynamics, transcranial 2-photon imaging; settings: 24 h after i.p. dose; TBG 50 mg/kg, DOI 10 mg/kg
# Procedure: In Vivo Spine Dynamics. Male and female Thy1-GFP-M line mice (n=5 per condition) were purchased from The Jackson Laboratory (JAX #007788) and maintained in UCSC animal facilities according to an IACUC approved protocol. In vivo transcranial two-photon imaging and data analysis were performed as previously described. Briefly, mice were anesthetized with an intraperitoneal (i.p.) injection of a mixture of ketamine (87 mg/kg) and xylazine (8.7 mg/kg). A small region of the exposed skull was manually thinned down to 20-30 μm for optical access. Spines on apical dendrites in mouse primary sensory cortices were imaged using a Bruker Ultima IV two-photon microscope equipped with an Olympus water-immersion objective (40×, NA=0.8) and a Ti:Sapphire laser (Spectra-Physics Mai-Tai, excitation wavelength 920 nm). Images were taken at a zoom of 4.0 (pixel size 0.143×0.143 μm) and Z-step size of 0.7 μm. The mice received an i.p. injection (injection volume=5 mL/kg) of DOI (10 mg/kg) or TBG (50 mg/kg) immediately after they recovered from anesthesia given prior to the first imaging session. The animals were re-imaged 24 h after drug administration. Dendritic spine dynamics were analyzed using ImageJ. Spine formation and elimination were quantified as percentages of spine number on day 0.
# Sequence of mouse 5-HT2A receptors (P35363 whole entry, canonical isoform): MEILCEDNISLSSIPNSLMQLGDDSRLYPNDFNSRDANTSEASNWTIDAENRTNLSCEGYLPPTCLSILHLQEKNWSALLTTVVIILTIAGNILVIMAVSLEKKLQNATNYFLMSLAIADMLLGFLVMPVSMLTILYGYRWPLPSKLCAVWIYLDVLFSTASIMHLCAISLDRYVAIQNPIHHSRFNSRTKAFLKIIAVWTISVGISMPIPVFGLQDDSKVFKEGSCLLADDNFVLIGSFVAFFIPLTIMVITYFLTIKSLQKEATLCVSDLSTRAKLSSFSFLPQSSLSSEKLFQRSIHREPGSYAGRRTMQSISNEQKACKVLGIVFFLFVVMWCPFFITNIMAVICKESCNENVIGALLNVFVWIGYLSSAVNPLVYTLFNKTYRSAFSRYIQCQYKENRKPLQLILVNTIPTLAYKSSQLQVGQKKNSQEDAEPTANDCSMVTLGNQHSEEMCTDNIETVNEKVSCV
smiles,measurement,setting,value
COc1ccc2c3c([nH]c2c1)CCN(C)CC3 [TBG],agonist activity at mouse 5-HT2A receptors,mouse 5-HT2A receptors,potent agonist activity
same,"dendritic arbor complexity (Sholl analysis, Nmax)",[1]; DIV6,increased dendritic arbor complexity
same,effect on dendritic growth after pretreatment with ketanserin (5-HT2A antagonist),[1]; ketanserin pretreatment,blocked by the 5-HT2A antagonist ketanserin; also recorded: completely abrogated its effects
same,5-HT2C agonist activity compared to 5-MeO-DMT,5-HT2C,weaker 5-HT1A and 5-HT2C agonist activity
same,seizure induction (neural activity),[2],Neither ibogaine nor TBG produced excessive neural activity; also recorded: does not induce seizures
same,proportion of viable to non-viable fish,"zebrafish; 66 μM, 5 dpf",statistically indistinguishable from vehicle control; also recorded: does not cause developmental toxicity
same,"malformations, mortality, non-viable fish","zebrafish; 100 μM, 2 and 5 dpf",significantly fewer non-viable fish than ibogaine or noribogaine treatments
same,spine elimination,[3],no effect on spine elimination; also recorded: Neither TBG nor DOI affected spine elimination
same,spine formation,[3],increased spine formation
